# Measured values from patent US12391696B2, “Pyrrolopyrazole derivatives, preparation method thereof and application thereof in medicine” (SHANGHAI MEDICILON INC., priority 2019, dated 2025).
# Target: H+/K+ ATPase (Oryctolagus cuniculus (Rabbit), UniProt P27112)
# Assay: Determination of compounds' inhibition of H+/K+ ATPase enzyme activity
# Format: biochemical
# Conditions: H+/K+ ATPase extracted from rabbit stomach; malachite green detection, 500 μM ATP, pH 6.5
# From the text: Determination of Compounds' Inhibition of H^+/K^+ ATPase Enzyme Activity
# The following experiment is used to determine the inhibitory effect of the compound of the present invention on the H+/K+ATPase enzyme activity.
# • Plate reader: SpectraMax M5(MD) • Malachite Green (Sigma Aldrich, 213020-25G) • Ammonium molybdate (Sigma Aldrich, 277908-20G) • ATP (Sigma Aldrich, A1852-1VL). 2. Buffer Preparation
# Enzyme working solution: titrating the enzyme, diluting the enzyme with buffer 1, and during the reaction, taking 5 μl of the diluted solution into 50 μl reaction system.
# ATP solution: 100 mM ATP was diluted to 5 mM with no K+buffer, and 5 μl of the diluted solution was added to the 50 μl reaction system, that is, the final concentration of ATP was 500 μM.
# MLG color development liquid: 0.12% MLG, 7.5% ammonium molybdate, 11% Tween-20 was mixed as 100:25:2, and adding 15 μl of the mixture into each well during detection.
# Buffer 1: 50 mM Tris-HCl pH 6.5, 5 mM magnesium chloride (magnesium chloride), 10 μM valinomycin (valinomycin).
# Buffer 2: 50 mM Tris-HCl pH 6.5, 5 mM magnesium chloride (magnesium chloride), 10 μM valinomycin (valinomycin), 20 mM KCl.
# Homogenization buffer: 10 mmol/L Tris-HCl, pH 6.8, 0.25M sucrose (sucrose), 1 mmol/LEDTA
# 7.5% Ficoll layering solution: homogenization buffer+7.5% (W/W) (Ficoll 400).
# 3.1. H^+/K^+ ATPase Enzyme Extraction
# (1) The stomach tissue of the rabbit was separated, and the blood was washed with tap water, food residue.
# (2) The fundus portion was thoroughly washed with pre-cooled NaCl solution to remove surface mucus.
# (3) The stripped mucosa was filled into a sample bag or a 50 ml centrifuge tube, and quickly freezing in a liquid nitrogen tank.
# (4) The tissue was removed, minced with surgical scissors, and a pre-cooled homogenization buffer (4 ml/g tissue) was added and homogenized in a tissue homogenizer for 2 to 10 minutes.
# (5) After homogenization, if there were larger tissue particles, they could be removed by centrifugation (600 g, 10 min), and then the supernatant was transferred to a clean centrifuge tube. After centrifugation at 20000 g for 30 minutes, then the supernatant was transferred to a clean centrifuge tube at 100000 g for 90 minutes and the precipitate was collected.
# (6) Resuspending the precipitate with homogenization buffer, blowing uniformly, adding 7.5% Ficoll layering solution at equal ratio, centrifuging at 100000 g for 90 minutes, and collecting the precipitate.
# (7) Resuspending the precipitate with homogenization buffer, blowing uniformly, and the protein concentration was measured by Bradford. Freezing in tubes at −80° C. for later use.
# 3.2. H^+/K^+ ATPase Activity Experiment
# (1) Adding 35 μl of reaction buffer to each experimental well, and then added 35 μl of buffer 1.
# (2) Adding 5 μl buffer 1 containing 10% DMSO to the whole enzyme and buffer well.
# (3) Adding 5 μl of 10× compound working solution to the compound well and mixing well.
# (4) Adding 5 μl of buffer 1 to the buffer well.
# (5) Adding 5 μl of 10× enzyme working solution to the remaining wells, mixing and incubating at 37° C. for 30 minutes
# (6) Adding 5 μl of 10× ATP working solution to all experimental wells, and incubating at 37° C. for 20 min.
# (7) Adding 15 μl MLG chromogenic solution to all experimental wells, and uniformly mixing and incubating at room temperature for 5-30 min.
# (8) The reading number of 620 nm was detected by an M5 instrument. […]
# H+/K+ ATPase, sequence (P27112 whole entry): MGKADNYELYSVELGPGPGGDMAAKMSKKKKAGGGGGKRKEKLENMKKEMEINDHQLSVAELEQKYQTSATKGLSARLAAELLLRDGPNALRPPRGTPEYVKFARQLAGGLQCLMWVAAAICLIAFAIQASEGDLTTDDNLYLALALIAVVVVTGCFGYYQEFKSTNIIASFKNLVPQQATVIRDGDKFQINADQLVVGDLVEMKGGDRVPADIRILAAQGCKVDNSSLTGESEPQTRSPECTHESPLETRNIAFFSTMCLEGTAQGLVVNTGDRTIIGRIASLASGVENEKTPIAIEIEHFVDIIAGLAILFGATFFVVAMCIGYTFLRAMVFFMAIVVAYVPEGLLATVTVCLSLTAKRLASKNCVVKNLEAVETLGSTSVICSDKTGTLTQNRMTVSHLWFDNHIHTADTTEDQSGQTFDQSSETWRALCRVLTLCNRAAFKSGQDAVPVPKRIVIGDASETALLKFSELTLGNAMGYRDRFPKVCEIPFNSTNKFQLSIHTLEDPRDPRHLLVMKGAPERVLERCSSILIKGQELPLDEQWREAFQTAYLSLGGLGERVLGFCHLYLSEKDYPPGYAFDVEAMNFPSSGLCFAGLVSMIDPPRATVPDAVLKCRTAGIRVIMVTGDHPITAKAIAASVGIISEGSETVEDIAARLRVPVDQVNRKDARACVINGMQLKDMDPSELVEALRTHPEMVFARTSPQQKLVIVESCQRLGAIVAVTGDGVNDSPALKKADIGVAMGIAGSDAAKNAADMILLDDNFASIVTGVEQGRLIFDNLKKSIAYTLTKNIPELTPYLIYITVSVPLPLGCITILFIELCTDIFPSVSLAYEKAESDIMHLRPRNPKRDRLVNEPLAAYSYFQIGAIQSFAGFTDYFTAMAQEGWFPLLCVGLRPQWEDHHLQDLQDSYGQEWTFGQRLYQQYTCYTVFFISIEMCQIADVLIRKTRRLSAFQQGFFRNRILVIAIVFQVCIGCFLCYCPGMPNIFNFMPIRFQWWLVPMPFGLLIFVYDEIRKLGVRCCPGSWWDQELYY
# H+/K+ ATPase, sequence (P18597 whole entry partner): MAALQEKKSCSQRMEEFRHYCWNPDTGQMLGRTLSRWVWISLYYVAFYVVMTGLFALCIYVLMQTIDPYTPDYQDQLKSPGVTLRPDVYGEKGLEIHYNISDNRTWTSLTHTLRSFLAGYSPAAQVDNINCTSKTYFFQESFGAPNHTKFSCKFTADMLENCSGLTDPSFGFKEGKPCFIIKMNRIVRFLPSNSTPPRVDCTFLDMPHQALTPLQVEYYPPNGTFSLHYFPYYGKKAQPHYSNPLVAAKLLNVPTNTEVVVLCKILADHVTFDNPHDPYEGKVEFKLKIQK
row,Structure (SMILES),IC50
1,"CN1Cc2nn(Cc3cccc(N4CCOCC4)c3)c(-c3ccccc3F)c2C1 [Example 1, 4-(3-((3-(2-fluorophenyl)-5-methyl-5,6-dihydropyrrolo [3,4-c]pyrazole-2(4H)-yl)methyl)phenyl) morpholine]",410 nM
2,"CN1Cc2nn(Cc3cccc(N4CCC(N5CCCCC5)CC4)c3)c(-c3ccccc3F)c2C1 [Example 5, 2-(3-([1,4′-Bipiperidine]-1′-yl)benzyl)-3-(2-fluorophenyl)-5-methyl-2,4,5,6-tetrahydropyrrolo[3,4-c]pyrazole]",2580 nM

# Now from value to compound:
row,IC50,Structure (SMILES)
1,431 nM,"CN1Cc2nn(Cc3cccc(N4CCCCC4)c3)c(-c3ccccc3F)c2C1 [Example 2, 3-(2-fluorophenyl)-5-methyl-2-(3-(piperidin-1-yl)benzyl)-2,4,5,6-tetrahydropyrrolo[3,4-c]pyrazole]"
2,1860 nM,"CN1Cc2nn(Cc3cccc(N4CCCC4)c3)c(-c3ccccc3F)c2C1 [Example 3, 3-(2-fluorophenyl)-5-methyl-2-(3-(pyrrolidin-1-yl)benzyl)-2,4,5,6-tetrahydropyrrolo[3,4-c]pyrazole]"
3,580 nM,"CN1CCN(c2cccc(Cn3nc4c(c3-c3ccccc3F)CN(C)C4)c2)CC1 [Example 4, 3-(2-fluorophenyl)-5-methyl-2-(3-(4-methylpiperazin-1-yl)benzyl)-2,4,5,6-tetrahydro pyrrolo [3,4-c] pyrazole]"
